According to patent US7462630B2, “Diarylalkene derivatives and novel diarylalkane derivatives” (Ajinomoto Co., Inc., priority 2001, dated 2008):

Target: T1, N-type calcium channel (Homo sapiens, UniProt Q00975)
T1 construct: host or cells: IMR-32 human neuroblastoma cells, differentiated with dibutyl cAMP and 5-bromodeoxyuridine
Assay: Antagonistic activity on N-type calcium channel (fluorescence dye method, KCl-stimulated intracellular calcium change in IMR-32 cells with 1 μM Nifedipine)
Type: cell-based
Conditions: 10 μM test compound, 60 mM KCl stimulation, read-out: Antagonistic activity on N-type calcium channels at 10 μM inhibition rate (%)
Experimental: Human neuroblastoma cells IMR-32 were obtained from ATCC (American Type Culture Collection). The medium used was a Phenol Red-free Eagle minimum essential medium containing earle's salts (GIBCO) supplemented with 2 mM of L-glutamine (GIBCO), 1 mM of sodium pyruvate (pH 6.5) (GIBCO), antibiotic/antimycotic mixture (GIBCO) and 10% fetal calf serum (Cell Culture Technologies). Three ml of 1×10^5 cells/ml IMR-32 cells were spread on the glass bottom of a dish (Iwaki Glsss Co., Ltd.) having a diameter of 35 mm which had been treated with poly-L-lysin (SIGMA) and collagen (COLLAGEN VITROGEN 100; Collagen Co.). After the culture for 1 day, 1 mM (final concentration) of dibutyl cAMP and 2.5 μM (final concentration) of 5-bromodeoxyuridine (SIGMA) were added. After the culture for additional 10 to 14 days, the cells were subjected to the activity determination.
The medium for IMR-32 cells thus prepared was replaced with 1 ml of Phenol Red-free Eale minimum essential medium (GIBCO) containing 2.5 μM fura-2/AM (Dojin Kagaku, Co.) and earle's salts supplement, and the incubation was conducted at 37° C. for 30 minutes. Then the medium was replaced with a recording medium (20 mM of HEPES-KOH, 115 mM of NaCl, 5.4 mM of KCl, 0.8 mM of MgCl2, 1.8 mM of CaCl2 and 13.8 mM of D-glucose). Antagonistic activity on N-type calcium channel was determined and analyzed using a fluorescence microscope (Nikon Corporation) and an image analysis device ARGUS 50 (Hamamatsu Photonics). In particular, a recording medium (20 mM of HEPES-KOH, 115 mM of NaCl, 5.4 mM of KCl, 0.8 mM of MgCl2, 1.8 mM of CaCl2 and 13.8 mM of D-glucose) containing 1 μM of Nifedipine was given to the cells by reflux by a Y-tube method for 2 minutes. Then a stimulating agent containing 60 mM of potassium chloride was rapidly given by the Y-tube method. The calcium concentration change in the cells in this step was shown as the N-type calcium channel activity. Then stimulating agents containing 60 mM of potassium chloride and 0.1, 1 or 10 μM of the test compound were successively and rapidly given to the cells by the Y-tube method to determine the change in the intracellular calcium concentration. The antagonistic activity on N-type calcium channel was calculated from the inhibition rate (%) at a concentration of 10 μM.

T1 sequence (Q00975 whole entry): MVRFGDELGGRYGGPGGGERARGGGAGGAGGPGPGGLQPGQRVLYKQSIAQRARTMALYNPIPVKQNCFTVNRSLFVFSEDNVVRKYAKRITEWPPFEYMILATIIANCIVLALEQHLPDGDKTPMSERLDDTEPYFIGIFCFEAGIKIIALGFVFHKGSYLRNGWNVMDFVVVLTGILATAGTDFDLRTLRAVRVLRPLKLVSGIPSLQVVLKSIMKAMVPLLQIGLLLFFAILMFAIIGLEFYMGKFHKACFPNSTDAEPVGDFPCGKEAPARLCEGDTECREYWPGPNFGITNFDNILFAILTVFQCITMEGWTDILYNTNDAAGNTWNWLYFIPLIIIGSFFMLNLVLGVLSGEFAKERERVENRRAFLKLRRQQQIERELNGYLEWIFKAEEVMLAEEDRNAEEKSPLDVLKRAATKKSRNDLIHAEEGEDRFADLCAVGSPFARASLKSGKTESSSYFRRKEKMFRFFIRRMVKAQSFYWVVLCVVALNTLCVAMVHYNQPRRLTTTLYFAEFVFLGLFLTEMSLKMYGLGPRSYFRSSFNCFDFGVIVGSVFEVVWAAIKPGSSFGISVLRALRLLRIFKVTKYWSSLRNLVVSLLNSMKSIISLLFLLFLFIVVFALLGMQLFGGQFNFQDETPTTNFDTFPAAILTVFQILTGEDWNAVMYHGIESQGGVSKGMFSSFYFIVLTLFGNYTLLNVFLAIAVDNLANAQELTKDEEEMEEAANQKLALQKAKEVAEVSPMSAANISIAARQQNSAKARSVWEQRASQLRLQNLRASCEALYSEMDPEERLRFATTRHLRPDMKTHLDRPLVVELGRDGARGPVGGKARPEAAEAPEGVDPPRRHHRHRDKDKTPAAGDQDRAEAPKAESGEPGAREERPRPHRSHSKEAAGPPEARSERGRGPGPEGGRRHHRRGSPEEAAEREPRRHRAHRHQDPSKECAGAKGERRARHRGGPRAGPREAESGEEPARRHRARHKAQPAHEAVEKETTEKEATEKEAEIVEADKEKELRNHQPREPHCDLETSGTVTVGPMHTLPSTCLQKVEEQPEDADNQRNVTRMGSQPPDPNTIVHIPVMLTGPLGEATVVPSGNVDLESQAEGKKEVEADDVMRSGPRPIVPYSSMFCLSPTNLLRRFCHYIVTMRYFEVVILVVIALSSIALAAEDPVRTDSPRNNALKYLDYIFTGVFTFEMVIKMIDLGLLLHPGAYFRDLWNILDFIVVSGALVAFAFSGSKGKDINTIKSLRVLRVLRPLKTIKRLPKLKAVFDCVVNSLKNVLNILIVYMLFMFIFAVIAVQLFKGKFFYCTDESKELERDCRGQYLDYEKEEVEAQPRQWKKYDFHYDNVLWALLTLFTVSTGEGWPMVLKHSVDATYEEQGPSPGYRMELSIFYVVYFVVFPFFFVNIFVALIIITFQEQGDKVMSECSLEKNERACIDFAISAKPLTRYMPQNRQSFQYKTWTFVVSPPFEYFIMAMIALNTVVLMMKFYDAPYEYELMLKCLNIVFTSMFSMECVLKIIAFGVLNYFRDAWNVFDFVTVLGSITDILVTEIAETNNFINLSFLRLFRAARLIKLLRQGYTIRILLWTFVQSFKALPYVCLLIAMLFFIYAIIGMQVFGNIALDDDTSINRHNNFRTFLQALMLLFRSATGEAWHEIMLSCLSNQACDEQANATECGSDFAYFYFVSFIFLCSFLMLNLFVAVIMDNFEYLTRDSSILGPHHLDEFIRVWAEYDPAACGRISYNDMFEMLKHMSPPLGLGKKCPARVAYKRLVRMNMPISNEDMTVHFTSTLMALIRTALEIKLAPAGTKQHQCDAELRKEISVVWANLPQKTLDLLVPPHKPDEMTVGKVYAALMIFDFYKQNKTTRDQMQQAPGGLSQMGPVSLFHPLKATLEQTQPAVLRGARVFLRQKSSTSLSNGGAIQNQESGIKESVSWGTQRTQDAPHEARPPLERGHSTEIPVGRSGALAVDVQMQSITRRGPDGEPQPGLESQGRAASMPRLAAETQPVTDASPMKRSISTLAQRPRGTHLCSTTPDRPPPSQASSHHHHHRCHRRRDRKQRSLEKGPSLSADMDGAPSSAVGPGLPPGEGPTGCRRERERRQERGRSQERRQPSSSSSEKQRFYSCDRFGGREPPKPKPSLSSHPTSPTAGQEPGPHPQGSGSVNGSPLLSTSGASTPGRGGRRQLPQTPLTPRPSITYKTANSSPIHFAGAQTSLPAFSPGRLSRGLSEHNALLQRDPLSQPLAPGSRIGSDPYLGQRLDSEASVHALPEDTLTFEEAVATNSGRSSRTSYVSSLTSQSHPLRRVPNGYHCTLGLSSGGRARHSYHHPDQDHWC
T1 sequence (P54284 whole entry partner): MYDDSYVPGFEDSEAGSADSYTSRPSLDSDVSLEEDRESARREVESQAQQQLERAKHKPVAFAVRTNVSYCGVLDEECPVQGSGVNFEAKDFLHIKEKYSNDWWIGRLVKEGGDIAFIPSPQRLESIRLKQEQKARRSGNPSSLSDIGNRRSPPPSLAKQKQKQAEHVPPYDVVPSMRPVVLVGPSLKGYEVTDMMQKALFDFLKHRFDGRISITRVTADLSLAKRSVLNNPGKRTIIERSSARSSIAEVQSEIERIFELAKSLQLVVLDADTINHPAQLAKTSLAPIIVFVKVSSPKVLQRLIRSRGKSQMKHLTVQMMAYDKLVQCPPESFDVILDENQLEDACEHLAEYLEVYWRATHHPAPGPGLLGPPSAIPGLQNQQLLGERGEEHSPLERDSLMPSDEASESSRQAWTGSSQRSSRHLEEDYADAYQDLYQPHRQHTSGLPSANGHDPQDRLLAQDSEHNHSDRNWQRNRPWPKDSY
T1 sequence (P54289 25-956 partner limits assumed): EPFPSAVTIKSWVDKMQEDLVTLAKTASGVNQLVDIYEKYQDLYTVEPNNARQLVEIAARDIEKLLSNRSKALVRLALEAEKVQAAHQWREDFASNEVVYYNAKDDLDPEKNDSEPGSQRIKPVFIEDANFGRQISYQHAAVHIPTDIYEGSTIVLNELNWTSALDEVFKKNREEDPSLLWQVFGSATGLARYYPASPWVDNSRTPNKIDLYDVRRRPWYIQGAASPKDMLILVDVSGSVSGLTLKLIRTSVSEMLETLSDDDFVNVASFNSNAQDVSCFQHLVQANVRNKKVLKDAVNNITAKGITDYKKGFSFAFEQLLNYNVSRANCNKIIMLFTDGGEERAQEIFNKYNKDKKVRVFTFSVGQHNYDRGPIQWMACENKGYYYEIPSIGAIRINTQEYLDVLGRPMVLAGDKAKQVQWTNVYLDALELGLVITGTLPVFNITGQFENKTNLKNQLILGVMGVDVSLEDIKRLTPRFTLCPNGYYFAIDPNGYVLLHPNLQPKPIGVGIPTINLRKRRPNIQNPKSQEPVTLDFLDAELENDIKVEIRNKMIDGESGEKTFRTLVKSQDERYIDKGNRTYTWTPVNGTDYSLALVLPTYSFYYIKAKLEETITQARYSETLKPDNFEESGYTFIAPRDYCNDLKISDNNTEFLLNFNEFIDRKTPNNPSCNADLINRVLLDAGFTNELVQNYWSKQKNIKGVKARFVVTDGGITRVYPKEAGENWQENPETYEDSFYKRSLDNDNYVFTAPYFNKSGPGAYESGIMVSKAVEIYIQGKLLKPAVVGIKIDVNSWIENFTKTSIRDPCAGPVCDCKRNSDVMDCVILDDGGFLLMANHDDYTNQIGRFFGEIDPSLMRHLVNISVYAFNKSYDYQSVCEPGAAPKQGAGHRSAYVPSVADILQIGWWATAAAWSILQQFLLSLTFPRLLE
T1 sequence (P54289 957-1103 partner limits assumed): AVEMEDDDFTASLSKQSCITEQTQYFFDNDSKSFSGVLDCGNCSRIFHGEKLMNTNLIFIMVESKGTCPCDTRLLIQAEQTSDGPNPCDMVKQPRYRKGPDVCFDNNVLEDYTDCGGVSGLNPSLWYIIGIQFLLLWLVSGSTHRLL

Row | inhibition at 10 µM | SMILES
1 | 77% | CC(C)(C)C(=O)NCCC(=O)N1CCC(=C2c3ccccc3C=Cc3ccccc32)CC1 [Example 11, N-{3-[4-(5H-dibenzo[a,d][7]annulen-5-ylidene)-1-piperidinyl]-3-oxopropyl}-2,2-dimethylpropanamide]
2 | 74% | CC(C)(C)C(=O)N[C@H](CO)CCC(=O)N1CCC(=C2c3ccccc3C=Cc3ccccc32)CC1 [Example 71, (S)-N-[4-[4-(5H-dibenzo[a,d][7]annulen-5-ylidene)-1-piperidinyl]-1-(hydroxylmethyl)-4-oxobutyl]-2.2-dimethylpropanamide]
